From the NIST ThermoML archive (doi:10.1016/j.fluid.2012.01.008)
Numbers after ± are expanded uncertainties.

Settings: 313.15 K; Liquid; Closed cell (Static) method

Compound | vapor or sublimation pressure [kPa]
CCCCCCC [heptane] | 12.34 ± 0.03
Cc1ccccc1 [toluene] | 7.886 ± 0.022
